Patent US20250296914A1, “ANTIVIRAL COMPOUNDS AND COMPOSITIONS THEREFROM” (CONSEJO SUPERIOR DE INVESTIGACIONES CIENTÍFICAS, priority 2022, published 2025)

Tests used:
[1] = test system: SARS-CoV-2 stock strain NL/2020; test: Protective effect against virus-induced cytopathic effect (crystal violet staining of Vero-E6 monolayer); format: cell-based; conditions: Severe acute respiratory syndrome coronavirus 2, Vero C1008, 72 h, Vero-E6, SARS-CoV-2 MOI 0.001, 72 h; for minimal effective concentration: 50 to 0.78 μM tested, read-out: PC MIN (lowest protective concentration); for EC50: lowest fully protecting concentration averaged with next lower dilution, read-out: ESTIMATED EC50
[2] = test system: SARS-CoV-2 stock strain NL/2020; test: Intracellular viral antigen (N protein) accumulation by immunofluorescence, Vero-E6; format: cell-based; conditions: Severe acute respiratory syndrome coronavirus 2, Vero C1008; Vero-E6, MOI 0.005, viral antigen staining, 24 h
[3] = test system: SARS-CoV-2 stock strain NL/2020; test: Intracellular viral antigen (N protein) accumulation by immunofluorescence, A549-ACE2; format: cell-based; conditions: Severe acute respiratory syndrome coronavirus 2; A549-ACE2, MOI 0.005, viral antigen staining, 48 h
[4] = test system: SARS-CoV-2 stock strain NL/2020; test: Intracellular viral antigen (N protein) accumulation by immunofluorescence, Calu3; format: cell-based; conditions: Severe acute respiratory syndrome coronavirus 2; Calu-3, MOI 0.005, viral antigen staining, 48 h
hCoV-229E-GFP virus = format: cell-based, Human coronavirus 229E
WNV-GFP virus = format: cell-based, West Nile Virus; conditions: Huh-7, MOI 0.01, 48 h, FIG. 2
VSV-GFP virus = format: cell-based, Vesicular Stomatitis Virus
in vitro [5] = conditions: African green monkey
in vitro [6] = conditions: human
in vitro [7] = conditions: human; remark: listed apart in the source
[8] = test system: SARS-CoV-2 stock strain NL/2020; test: Intracellular viral RNA quantification by RT-qPCR in A549-ACE2 cells; format: cell-based

`COC(=O)c1cc(-c2ccc(N3CCOCC3)cc2)ccc1NC(C#N)[C@H](Cc1c[nH]c2ccccc12)NC(=O)OC(C)(C)C` (stereo partly drawn) [(Ia), methyl 4-(((2S)-2-((tert-butoxycarbonyl)amino)-1-cyano-3-(1H-indol-3-yl)propyl)-amino)-4′-morpholino-[1,1′-biphenyl]-3-carboxylate] gave a minimal effective concentration [1] of 0.78 µM, an EC50 [1] of 0.58 µM and an EC50 [2] of 0.3 µM. The EC90 [2] was 0.5 µM, the EC50 [3] was 1 µM and the EC90 [3] was 1.8 µM. For the same compound, the EC50 [4] was 0.2 µM, the EC90 [4] was 2 µM and the “Prevention of infection with 229E-GFP (GFP expression, in words)” value (“Prevention of infection with 229E-GFP” below) (hCoV-229E-GFP virus) was “suitable for preventing efficiently the infection”. The “Prevention of infection by West Nile Virus (GFP expression, in words)” value (WNV-GFP virus) was “not being suitable for preventing the infection”, the “Prevention of infection by Vesicular Stomatitis Virus (GFP expression, in words)” value (VSV-GFP virus) was “not being suitable for preventing the infection” and the CC50 at 48 h (in vitro [5]) was over 50 µM. For the same compound, the CC50 at 48 h (in vitro [6]) was over 50 µM and the CC50 at 48 h (in vitro [7]) was over 50 µM.

`CC(C)(C)OC(=O)N[C@@H](Cc1c[nH]c2ccccc12)C(C#N)Nc1ccc(Br)cc1C(=O)c1ccccc1` (stereo partly drawn) [(Ic), (3S)-2-((4-Bromo-2-benzoylphenyl)amino)-4-(1H-indol-3-yl)-3-(tert-butoxycarbonylamino)butanenitrile] showed a minimal effective concentration [1] of 0.78 µM, an EC50 [1] of 0.58 µM and an EC50 [2] of 0.2 µM. For the same compound, the EC90 [2] was 0.3 µM, the EC50 [3] was 1 µM and the EC90 [3] was 2.1 µM. The EC50 [4] was 1.2 µM, the EC90 [4] was 1.8 µM and the “LOG viral RNA reduction” value ([8]; A549-ACE2, MOI 0.005, 48 h, compound concentration 4 μM, vs DMSO) was 4.26 LOG. The “Prevention of SARS-CoV-2 propagation (in words)” value ([8]; A549-ACE2, conclusion from Table 5) was “effective in preventing propagation of SARS-CoV-2”, the “Prevention of infection with 229E-GFP” value (hCoV-229E-GFP virus) was “suitable for preventing efficiently the infection” and the “Prevention of infection by West Nile Virus (GFP expression, in words)” value (WNV-GFP virus) was “not being suitable for preventing the infection”. The “Prevention of infection by Vesicular Stomatitis Virus (GFP expression, in words)” value (VSV-GFP virus) was “not being suitable for preventing the infection” and the CC50 at 48 h (in vitro [5]) was over 50 µM.

For `COC(=O)c1cc(-c2ccc(N3CCCC3)nc2)ccc1NC(C#N)[C@H](Cc1c[nH]c2ccccc12)NC(=O)OC(C)(C)C` (stereo partly drawn) [(Iq), methyl 2-(((2S)-2-((tert-butoxycarbonyl)amino)-1-cyano-3-(1H-indol-3-yl)propyl)amino)-5-(6-(pyrrolidin-1-yl)pyridin-3-yl)benzoate], the minimal effective concentration [1] was 1.56 µM, the EC50 [1] was 1.17 µM and the EC50 [2] was 0.2 µM. The EC90 [2] was 0.9 µM, the EC50 [3] was 1.5 µM and the EC90 [3] was 5 µM. The EC50 [4] was 0.3 µM, the EC90 [4] was 2.5 µM and the “Prevention of infection with 229E-GFP” value (hCoV-229E-GFP virus) was “suitable for preventing efficiently the infection”. For the same compound, the “Prevention of infection by West Nile Virus (GFP expression, in words)” value (WNV-GFP virus) was “not being suitable for preventing the infection”, the “Prevention of infection by Vesicular Stomatitis Virus (GFP expression, in words)” value (VSV-GFP virus) was “not being suitable for preventing the infection” and the CC50 at 48 h (in vitro [5]) was over 50 µM. It also gave a CC50 at 48 h (in vitro [6]) of over 50 µM and a CC50 at 48 h (in vitro [7]) of over 50 µM.
